# Measurements reported in patent publication US11976059B2 (KOREA RESEARCH INSTITUTE OF CHEMICAL TECHNOLOGY, priority 2018, dated 2024).
# Target: EGFR L858R/T790M/C797S mutant enzyme (Homo sapiens (Human), UniProt P00533, C797S/L858R/T790M)
# Assay: EGFR mutant enzyme inhibition, HTRF system (Cisbio)
# Assay type: biochemical
# Details: ATP 1 mM, 37° C. for 2 hours
# Description: In order to evaluate the inhibitory activity of the compound represented by formula 1 according to the present invention against EGFR mutation, the following experiment was performed.
# The activity of the compound of the present invention against EGFR mutant enzyme was measured using the HTRF system of Cisbio Co. As an EGFR L858R/T790M/C797S mutant enzyme, a protein provided by SignalChem was purchased and used as an enzyme source.
# The composition of the assay buffer used for the activity measurement was as follows: 50 mM Tris-HCl (pH 7.5), 100 mM NaCl, 7.5 mM MgCl2, 3 mM KCl, 0.01% Tween 20, 0.1% BSA, and 1 mM DTT. Herein, an enzyme reaction was performed using a peptide substrate labeled with ATP at the concentration of 1 mM and biotin at the concentration of 0.5 μM. The analysis of the EGFR activity inhibitory effect of the compound was performed according to the following analytical reaction recipe.
# Component 1: 4 μl of EGFR mutant enzyme
# Component 2: 2 μl of compound solution
# Component 3: 4 μl of ATP and biotin-labeled peptide mixture
# The enzyme reaction was initiated by mixing the component 1 and the component 2 first and then adding the component 3 thereto. After reacting the mixture at 37° C. for 2 hours, 10 μl of a measurement solution consisting of streptavidin-XL665 and europium-labeled anti-phosphotyrosine antibody provided by Cisbio was added to the enzyme reaction solution, followed by reaction at room temperature for 1 hour. Finally, the ratio of the fluorescence values at 615 nm and 665 nm was calculated using Envision equipment of Perkin-Elmer to quantitatively measure the enzyme activity and confirm the inhibitory ability of the compound. The values measured at 7 concentrations of the compound were analyzed using Prism program (version 5.01, Graphpad Software, Inc.), and the IC50 value, an index of the inhibitory ability of the compound, was calculated.
# Sequence of EGFR L858R/T790M/C797S mutant enzyme (P00533 25-1210 T790M/C797S/L858R): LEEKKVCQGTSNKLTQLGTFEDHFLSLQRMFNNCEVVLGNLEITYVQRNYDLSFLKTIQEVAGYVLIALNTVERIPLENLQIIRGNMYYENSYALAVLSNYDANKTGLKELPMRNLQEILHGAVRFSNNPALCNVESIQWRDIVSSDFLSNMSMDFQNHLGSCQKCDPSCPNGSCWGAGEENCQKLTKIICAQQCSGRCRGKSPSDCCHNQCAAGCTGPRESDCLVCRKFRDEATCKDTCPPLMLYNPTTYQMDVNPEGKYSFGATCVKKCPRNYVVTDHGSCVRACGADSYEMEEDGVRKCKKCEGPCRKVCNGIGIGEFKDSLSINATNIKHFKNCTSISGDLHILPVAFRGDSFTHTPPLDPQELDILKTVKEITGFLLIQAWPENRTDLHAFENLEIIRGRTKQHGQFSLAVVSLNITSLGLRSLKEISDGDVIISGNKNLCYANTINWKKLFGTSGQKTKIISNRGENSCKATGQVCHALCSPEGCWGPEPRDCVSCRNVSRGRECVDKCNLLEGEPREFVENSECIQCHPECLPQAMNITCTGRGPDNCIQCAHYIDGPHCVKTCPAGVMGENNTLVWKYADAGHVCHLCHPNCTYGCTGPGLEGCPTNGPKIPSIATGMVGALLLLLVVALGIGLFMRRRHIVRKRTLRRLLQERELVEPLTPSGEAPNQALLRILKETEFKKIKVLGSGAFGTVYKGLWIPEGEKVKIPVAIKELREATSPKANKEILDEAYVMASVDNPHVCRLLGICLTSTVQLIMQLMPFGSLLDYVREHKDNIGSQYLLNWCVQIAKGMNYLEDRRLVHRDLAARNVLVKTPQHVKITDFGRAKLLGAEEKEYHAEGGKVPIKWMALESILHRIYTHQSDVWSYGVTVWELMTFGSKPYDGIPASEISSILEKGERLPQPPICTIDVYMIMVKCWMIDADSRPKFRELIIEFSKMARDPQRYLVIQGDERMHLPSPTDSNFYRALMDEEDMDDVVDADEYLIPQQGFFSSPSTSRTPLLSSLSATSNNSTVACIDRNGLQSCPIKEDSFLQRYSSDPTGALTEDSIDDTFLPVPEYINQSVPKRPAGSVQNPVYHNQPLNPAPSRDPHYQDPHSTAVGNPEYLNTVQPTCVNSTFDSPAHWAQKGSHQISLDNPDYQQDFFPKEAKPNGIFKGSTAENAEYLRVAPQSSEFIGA
row,SMILES,IC50
1,"O=C1c2cc(C3=CCNCC3)ccc2CN1[C@@H](c1cc2ccccc2[nH]1)c1cc(F)ccc1O [Example 35, (R)-2-((5-fluoro-2-hydroxyphenyl)(1H-indole-2-yl)methyl)-6-(1,2,3,6-tetrahydropyridine-4-yl)isoindolin-1-one]",730 nM
2,"O=C1c2cc(-c3ccc(N4CCNCC4)cc3)ccc2CN1[C@@H](c1cc2cc(F)ccc2[nH]1)c1cc(F)ccc1O [Example 51, (R)-2-((5-fluoro-1H-indole-2-yl)(5-fluoro-2-hydroxyphenyl)methyl)-6-(4-(piperazine-1-yl)phenyl)isoindolin-1-one]",650 nM
3,"O=C1c2ccccc2CN1[C@@H](c1cc2ccccc2[nH]1)c1cc(F)c(F)cc1O [Example 22, (R)-2-((4,5-difluoro-2-hydroxyphenyl)(1H-indole-2-yl)methyl)isoindolin-1-one]",> 10000 nM
4,"CN(C)C1CCN(c2ccc(-c3ccc4c(c3)C(=O)N([C@@H](c3cc5ccccc5[nH]3)c3cc(F)ccc3O)C4)cc2)CC1 [Example 61, (R)-6-(4-(4-(dimethylamino)piperidine-1-yl)phenyl)-2-((5-fluoro-2-hydroxyphenyl)(1H-indole-2-yl)methyl)-isoindolin-1-one]",66 nM
5,"O=C1c2cc(-c3ccc(-c4ccncc4)cc3)ccc2CN1[C@@H](c1cc2ccccc2[nH]1)c1cc(F)ccc1O [Example 47, (R)-2-((5-fluoro-2-hydroxyphenyl)(1H-indole-2-yl)methyl)-6-(4-(pyridine-4-yl)phenyl)isoindolin-1-one]",85 nM
6,"O=C1c2ccccc2CN1C(c1nc2cc(Cl)c(Cl)cc2[nH]1)c1ccccc1O (stereo not shown) [Example 5, 2-((5,6-dichloro-1H-benzo[d]imidazole-2-yl)(2-hydroxyphenyl)methyl)isoindolin-1-one]",7000 nM
7,"Cc1ccc(O)c([C@H](c2cc3ccccc3[nH]2)N2Cc3ccccc3C2=O)c1 [Example 20, (R)-2-((2-hydroxy-5-methylphenyl)(1H-indole-2-yl)methyl)isoindolin-1-one]",1600 nM
8,"O=C1c2cc(N3CCNCC3)ccc2CN1[C@@H](c1cc2ccccc2[nH]1)c1cc(F)ccc1O [Example 37, (R)-2-((5-fluoro-2-hydroxyphenyl)(1H-indole-2-yl)methyl)-6-(piperazine-1-yl)isoindolin-1-one]",> 10000 nM
9,"CN1CCN(c2ccc(-c3ccc4c(c3)C(=O)N(C(c3nc5ccccc5[nH]3)c3cc(F)ccc3O)C4)cc2)CC1 (stereo not shown) [Example 18, 2-((1H-benzo[d]imidazole-2-yl)(5-fluoro-2-hydroxyphenyl)methyl)-6-(4-(4-methylpiperazine-1-yl)phenyl)isoindolin-1-one]",130 nM
10,O=C1c2cc(C3=CCNCC3)ccc2CN1C(c1nc2ccccc2[nH]1)c1cc(Cl)ccc1O (stereo not shown) [Example 17],1100 nM
11,"Nc1ccc(-c2ccc3c(c2)C(=O)N([C@@H](c2cc4ccccc4[nH]2)c2cc(F)ccc2O)C3)cc1 [Example 29, (R)-6-(4-aminophenyl)-2-((5-fluoro-2-hydroxyphenyl)(1H-indole-2-yl)methyl)isoindolin-1-one]",280 nM
12,"O=C1c2ccccc2CN1C(c1nc2ccccc2[nH]1)c1ccccc1O (stereo not shown) [Example 1, 2-((1H-benzo[d]imidazole-2-yl)(2-hydroxyphenyl)methyl)isoindolin-1-one]",1000 nM
13,"O=C1c2ccccc2CN1[C@@H](c1cc2ccccc2[nH]1)c1c(O)cccc1F [Example 25, (R)-2-((2-fluoro-6-hydroxyphenyl)(1H-indole-2-yl)methyl)isoindolin-1-one]",> 10000 nM
14,"O=C1c2cc(-c3ccc(N4CCOCC4)cc3)ccc2CN1[C@@H](c1cc2ccccc2[nH]1)c1cc(Cl)ccc1O [Example 46, (R)-2-((5-chloro-2-hydroxyphenyl)(1H-indole-2-yl)methyl)-6-(4-morpholinophenyl)isoindolin-1-one]",110 nM
15,"O=C1c2cc(-c3ccc(N4CCN(C5CCNCC5)CC4)cc3)ccc2CN1[C@@H](c1cc2ccccc2[nH]1)c1cc(Cl)ccc1O [Example 64, (R)-2-((5-chloro-2-hydroxyphenyl)(1H-indole-2-yl)methyl)-6-(4-(4-(piperidine-4-yl)piperazine-1-yl)phenyl)isoindolin-1-one]",260 nM
16,"N[C@@H]1CCN(c2ccc(-c3ccc4c(c3)C(=O)N([C@@H](c3cc5ccccc5[nH]3)c3cc(Cl)ccc3O)C4)cc2)C1 [Example 70, 6-(4-((R)-3-aminopyrrolidine-1-yl)phenyl)-2-((R)-(5-chloro-2-hydroxyphenyl)(1H-indole-2-yl)methyl)isoindolin-1-one]",730 nM

row,SMILES,IC50
1,"CN1CCC(N2CCN(c3ccc(-c4ccc5c(c4)C(=O)N([C@@H](c4cc6ccccc6[nH]4)c4cc(Cl)ccc4O)C5)cc3)CC2)CC1 [Example 66, (R)-2-((5-chloro-2-hydroxyphenyl)(1H-indole-2-yl)methyl)-6-(4-(4-(1-methylpiperidine-4-yl)piperazine-1-yl)phenyl)isoindolin-1-one]",410 nM
2,"O=C1c2cc(-c3ccc(N4CCNCC4)cc3)ccc2CN1[C@@H](c1cc2cccnc2[nH]1)c1cc(Cl)ccc1O [Example 50, (R)-2-((5-chloro-2-hydroxyphenyl)(1H-pyrrolo[2,3-b]pyridine-2-yl)methyl)-6-(4-(piperazine-4-yl)phenyl)isoindolin-1-one]",420 nM
3,"O=C1c2ccccc2CN1C(c1nc2cccnc2[nH]1)c1ccccc1O (stereo not shown) [Example 3, 2-((2-hydroxyphenyl)(3H-imidazo[4,5-b]pyridine-2-yl)methyl)isoindolin-1-one]",2300 nM
4,"O=C1c2ccccc2CN1[C@@H](c1cc2ccccc2[nH]1)c1ccccc1O [Example 19, (R)-2-((2-hydroxyphenyl)(1H-indole-2-yl)methyl)isoindolin-1-one]",> 10000 nM
5,"O=C1c2ccccc2CN1C(c1nc2ccc(Cl)nc2[nH]1)c1ccccc1O (stereo not shown) [Example 6, 2-((5-chloro-3H-imidazo[4,5-b]pyridine-2-yl)(2-hydroxyphenyl)methyl)isoindolin-1-one]",> 10000 nM
6,"CN1CCN(c2ccc(-c3ccc4c(c3)C(=O)N([C@@H](c3cc5ccccc5[nH]3)c3cc(F)ccc3O)C4)cc2)CC1 [Example 43, (R)-2-((5-fluoro-2-hydroxyphenyl)(1H-indole-2-yl)methyl)-6-(4-(4-methylpiperazine-1-yl)phenyl)isoindolin-1-one]",210 nM
7,"CC(=O)N1CCN(c2ccc(-c3ccc4c(c3)C(=O)N([C@@H](c3cc5ccccc5[nH]3)c3cc(F)ccc3O)C4)cc2)CC1 [Example 54, (R)-6-(4-(4-acetylpiperazine-1-yl)phenyl)-2-((5-fluoro-2-hydroxyphenyl)(1H-indole-2-yl)methyl)-isoindolin-1-one]",240 nM
8,"O=C1c2cc(-c3ccc(N4CCOCC4)cc3)ccc2CN1C(c1nc2ccccc2[nH]1)c1cc(F)ccc1O (stereo not shown) [Example 39, 2-((1H-benzo[d]imidazole-2-yl)(5-fluoro-2-hydroxyphenyl)methyl)-6-(4-morpholinophenyl)isoindolin-1-one]",960 nM
9,"CN1CCN(c2ccc3c(c2)C(=O)N([C@@H](c2cc4ccccc4[nH]2)c2cc(F)ccc2O)C3)CC1 [Example 38, (R)-2-((5-fluoro-2-hydroxyphenyl)(1H-indole-2-yl)methyl)-6-(4-methylpiperazine-1-yl)isoindolin-1-one]",7600 nM
10,"O=C1c2ccccc2CN1[C@H](c1cc2cccnc2[nH]1)c1cc(F)ccc1O [Example 27, (S)-2-((5-fluoro-2-hydroxyphenyl)(1H-pyrrolo[2,3-b]pyridine-2-yl)methyl)isoindolin-1-one]",280 nM
11,"O=C1c2ccccc2CN1[C@@H](c1cc2ccccc2[nH]1)c1c(O)ccc(F)c1F [Example 21, (R)-2-((2,3-difluoro-6-hydroxyphenyl)(1H-indole-2-yl)methyl)isoindolin-1-one]",> 10000 nM
12,"O=C1c2cc(-c3ccc(N4CCOCC4)cc3)ccc2CN1C(c1nc2ccccc2[nH]1)c1cc(Cl)ccc1O (stereo not shown) [Example 40, 2-((1H-benzo[d]imidazole-2-yl)(5-chloro-2-hydroxyphenyl)methyl)-6-(4-morpholinophenyl)isoindolin-1-one]",370 nM
13,"O=C1c2cc(-c3ccc(N4CCCC4)cc3)ccc2CN1[C@@H](c1cc2ccccc2[nH]1)c1cc(F)ccc1O [Example 67, (R)-2-((5-fluoro-2-hydroxyphenyl)(1H-indole-2-yl)methyl)-6-(4-(pyrrolidine-1-yl)phenyl)isoindolin-1-one]",790 nM
14,"CN1CCN(c2ccc(-c3ccc4c(c3)C(=O)N([C@@H](c3cc5ccccc5[nH]3)c3cc(Cl)ccc3O)C4)cc2)CC1 [Example 44, (R)-2-((5-chloro-2-hydroxyphenyl)(1H-indole-2-yl)methyl)-6-(4-(4-methylpiperazine-1-yl)phenyl)isoindolin-1-one]",190 nM
15,"O=C1c2ccccc2CN1[C@H](c1cc2ccccc2[nH]1)c1cc(F)ccc1O [Example 24, (S)-2-((5-fluoro-2-hydroxyphenyl)(1H-indole-2-yl)methyl)isoindolin-1-one]",3300 nM
